Laboratory results as given in ChEMBL document CHEMBL5154687, “Intramolecular hydrogen bond interruption and scaffold hopping of TMC-5 led to 2-(4-alkoxy-3-cyanophenyl)pyrimidine-4/5-carboxylic acids and 6-(4-alkoxy-3-cyanophenyl)-1,2-dihydro-3H-pyrazolo[3,4-d]pyrimidin-3-ones as potent pyrimidine-based xanthine oxidase inhibitors” (Eur J Med Chem, 2022).
Calls of active or inactive are those of the source. No cut-off for these calls is given here.

Experiments:
[1] = test system: Rattus norvegicus; test: Hypouricemic activity in overnight-fasted Sprague-Dawley rat model of Potassium oxonate-induced acute hyperuricemia assessed as decrease in serum uric acid at 10 mg/kg, po administered after potassium oxonate treatment and measured up to 5 hrs relative to control; type: functional, organism-based
[2] = target: T1, Xanthine dehydrogenase/oxidase (Homo sapiens, UniProt P47989)
T1 sequence (P47989 whole entry): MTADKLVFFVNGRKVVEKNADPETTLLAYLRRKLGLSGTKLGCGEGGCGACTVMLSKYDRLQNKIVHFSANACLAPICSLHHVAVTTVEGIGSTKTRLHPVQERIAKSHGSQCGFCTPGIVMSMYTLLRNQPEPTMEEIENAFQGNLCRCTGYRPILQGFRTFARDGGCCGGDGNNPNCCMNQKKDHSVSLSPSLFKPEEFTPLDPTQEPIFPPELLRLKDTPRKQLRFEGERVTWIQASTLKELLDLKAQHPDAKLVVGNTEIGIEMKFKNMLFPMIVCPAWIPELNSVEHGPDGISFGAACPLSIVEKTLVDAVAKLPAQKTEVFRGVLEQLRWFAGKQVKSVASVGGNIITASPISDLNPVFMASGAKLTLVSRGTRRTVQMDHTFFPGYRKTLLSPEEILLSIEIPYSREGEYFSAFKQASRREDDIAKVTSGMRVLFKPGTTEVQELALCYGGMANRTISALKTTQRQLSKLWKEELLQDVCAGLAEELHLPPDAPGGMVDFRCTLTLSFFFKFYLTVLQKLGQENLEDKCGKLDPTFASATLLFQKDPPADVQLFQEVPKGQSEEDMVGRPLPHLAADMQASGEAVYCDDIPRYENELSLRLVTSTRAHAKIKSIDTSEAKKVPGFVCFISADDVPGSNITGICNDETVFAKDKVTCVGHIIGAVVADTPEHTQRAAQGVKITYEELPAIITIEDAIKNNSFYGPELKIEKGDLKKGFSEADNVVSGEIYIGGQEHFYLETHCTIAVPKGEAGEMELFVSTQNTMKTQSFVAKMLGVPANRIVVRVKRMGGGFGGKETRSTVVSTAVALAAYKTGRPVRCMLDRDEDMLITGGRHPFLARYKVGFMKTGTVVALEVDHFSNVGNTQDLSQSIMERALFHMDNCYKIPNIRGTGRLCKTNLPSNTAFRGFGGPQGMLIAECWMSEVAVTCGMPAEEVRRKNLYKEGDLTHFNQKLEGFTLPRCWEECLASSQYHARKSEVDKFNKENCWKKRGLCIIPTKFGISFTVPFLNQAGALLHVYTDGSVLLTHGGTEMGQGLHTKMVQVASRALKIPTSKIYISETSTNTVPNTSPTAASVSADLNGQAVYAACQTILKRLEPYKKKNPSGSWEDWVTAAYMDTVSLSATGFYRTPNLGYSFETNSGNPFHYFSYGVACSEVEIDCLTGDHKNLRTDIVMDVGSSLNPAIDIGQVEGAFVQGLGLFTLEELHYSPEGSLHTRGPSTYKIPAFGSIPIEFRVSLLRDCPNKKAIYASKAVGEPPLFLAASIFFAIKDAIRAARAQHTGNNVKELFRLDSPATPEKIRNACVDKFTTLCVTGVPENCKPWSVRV
Description: Inhibition of xanthine oxidase (unknown origin) using xanthine as substrate preincubated for 15 mins followed by substrate addition by UV spectrophotometric analysis

[3] = target: T1, Xanthine dehydrogenase/oxidase; test: Mixed-type inhibition of xanthine oxidase (unknown origin) assessed as Inhibitor dissociation constant using xanthine as substrate incubated for 15 mins followed by substrate addition by UV spectrophotometric analysis; settings: read-out: Kis

IC50 [2] | Ki [3] | Structure (SMILES) | Activity [1]
– | – | CC(C)Oc1ccc(-c2nccc(C(=O)O)n2)cc1C#N | Active
28 nM | 0.9 nM | Cc1nc(-c2ccc(OCC(C)C)c(C#N)c2)sc1C(=O)O [FEBUXOSTAT] | –
– | – | CC(C)Oc1ccc(-c2ncc3c(=O)[nH][nH]c3n2)cc1C#N | Active
